Legend:
[1] = Cytotoxicity against human MT4 cells assessed as reduction in cell viability incubated for 5 days by MTT assay; format: cell-based
[2] = tested on: Human immunodeficiency virus 1; experiment: Antiviral activity against HIV-1 3B infected in human MT4 cells assessed as reduction in virus-induced cytopathic effect incubated for 5 days by MTT assay; format: functional, organism-based; details: Human immunodeficiency virus 1, 3B, MT4, 120 h
[3] = Selectivity index, ratio of CC50 for human MT4 cells to EC50 for antiviral activity against HIV RES056; format: toxicity; details: read-out: Ratio CC50/EC50
[4] = tested on: Human immunodeficiency virus 1; experiment: Potency index, ratio of EC50 of AZT to EC50 of compound for antiviral activity against HIV-1 3B infected in human MT4 cells assessed as reduction in virus-induced cytopathic effect incubated for 5 days by MTT assay; format: functional
[5] = target: Human immunodeficiency virus type 1 reverse transcriptase (Human immunodeficiency virus 1, UniProt Q72547); experiment: Inhibition of HIV1 reverse transcriptase assessed as inhibition of biotin-dUTP incorporation into template incubated for 1 hr by ELISA
[6] = tested on: Human immunodeficiency virus 1; experiment: Potency index, ratio of EC50 of NVP to EC50 of compound for antiviral activity against HIV-1 3B infected in human MT4 cells assessed as reduction in virus-induced cytopathic effect incubated for 5 days by MTT assay; format: functional
[7] = tested on: Human immunodeficiency virus 1; experiment: Antiviral activity against drug resistant HIV-1 RES056 harboring reverse transcriptase K103N/Y181C double mutant infected in human MT4 cells assessed as reduction in virus-induced cytopathic effect incubated for 5 days by MTT assay; format: functional, organism-based; details: Human immunodeficiency virus 1, RES056, MT4, 120 h
[8] = Selectivity index, ratio of CC50 for human MT4 cells to EC50 for antiviral activity against HIV IIIB; format: toxicity; details: read-out: Ratio CC50/EC50
[9] = tested on: Human immunodeficiency virus 1; experiment: Antiviral activity against drug resistant HIV-1 harboring reverse transcriptase Y181C mutant infected in human MT4 cells assessed as reduction in virus-induced cytopathic effect incubated for 5 days by MTT assay; format: functional, organism-based; details: Human immunodeficiency virus 1, MT4, 120 h
[10] = tested on: Human immunodeficiency virus 1; experiment: Antiviral activity against drug resistant HIV-1 harboring reverse transcriptase K103N mutant infected in human MT4 cells assessed as reduction in virus-induced cytopathic effect incubated for 5 days by MTT assay; format: functional, organism-based; details: Human immunodeficiency virus 1, MT4, 120 h
[11] = tested on: Human immunodeficiency virus 1; experiment: Antiviral activity against drug resistant HIV-1 harboring reverse transcriptase F227L/V106A double mutant infected in human MT4 cells assessed as reduction in virus-induced cytopathic effect incubated for 5 days by MTT assay; format: functional, organism-based; details: Human immunodeficiency virus 1, MT4, 120 h
[12] = tested on: Human immunodeficiency virus 1; experiment: Antiviral activity against drug resistant HIV-1 harboring reverse transcriptase L100I mutant infected in human MT4 cells assessed as reduction in virus-induced cytopathic effect incubated for 5 days by MTT assay; format: functional, organism-based; details: Human immunodeficiency virus 1, MT4, 120 h
[13] = tested on: Human immunodeficiency virus 1; experiment: Antiviral activity against drug resistant HIV-1 harboring reverse transcriptase E138K mutant infected in human MT4 cells assessed as reduction in virus-induced cytopathic effect incubated for 5 days by MTT assay; format: functional, organism-based; details: Human immunodeficiency virus 1, MT4, 120 h
[14] = Sub-acute toxicity in Kunming mouse assessed as increase in alveolar hemorrhage administered for 14 days measured on day 14 by HE-staining based assay; details: in vivo, 336 h
[15] = Sub-acute toxicity in Kunming mouse assessed as increase in proximal convoluted tubule edema administered for 14 days measured on day 14 by HE-staining based assay; details: in vivo, 336 h
[16] = tested on: Human immunodeficiency virus 1; experiment: Antiviral activity against drug resistant HIV-1 harboring reverse transcriptase Y188L mutant infected in human MT4 cells assessed as reduction in virus-induced cytopathic effect incubated for 5 days by MTT assay; format: functional, organism-based; details: Human immunodeficiency virus 1, MT4, 120 h
[17] = Sub-acute toxicity in Kunming mouse assessed as increase in alveolar interstitial thickening administered for 14 days measured on day 14 by HE-staining based assay; details: in vivo, 336 h

Row | SMILES | CC50 at 120 h [1] | EC50 [2] | selectivity ratio [3] | Ratio EC50 [4] | IC50 [5] | Ratio EC50 [6] | EC50 [7] | selectivity ratio [8] | EC50 [9] | EC50 [10] | EC50 [11] | EC50 [12] | EC50 [13] | Activity [14] | Activity [15] | EC50 [16] | Activity [17]
1 | Cc1cc(C)cc(S(=O)(=O)c2c(C(=O)N[C@H]3CCN(S(C)(=O)=O)C3)[nH]c3ccc(Cl)cc23)c1 | 29900 nM | 4.3 nM | < 1 | 2.3 | 610 nM | 60 | > 29900 nM | 7080 |  |  |  |  |  |  |  |  | 
2 | Cc1cc(C)cc(S(=O)(=O)c2c(C(=O)N[C@@H]3CCN(S(C)(=O)=O)C3)[nH]c3ccc(Cl)cc23)c1 | 24000 nM | 4.7 nM | 3 | 2.1 |  | 55 | 7660 nM | 5190 |  |  |  |  |  |  |  |  | 
3 | Cc1cc(C)cc(S(=O)(=O)c2c(C(=O)N[C@@H]3CCN(CC(N)=O)C3)[nH]c3ccc(Cl)cc23)c1 | 31000 nM | 9.8 nM | < 1 |  | 1490 nM |  | > 31000 nM | 3170 |  |  |  |  |  |  |  |  | 
4 | Cc1cc(C)cc(S(=O)(=O)c2c(C(N)=O)[nH]c3ccc(Cl)cc23)c1 | 13000 nM | 4.1 nM | < 1 |  | 560 nM |  | > 13000 nM | 3130 | 27 nM | 18 nM | 9.6 nM | 17 nM | 910 nM |  |  |  | 
5 | Cc1cc(C#N)cc(C)c1Oc1nc(Nc2ccc(C#N)cc2)nc(N)c1Br [ETRAVIRINE] | > 4610 nM | 5.8 nM | > 238 |  |  |  | 19 nM | > 792 | 13 nM | 2.9 nM | 16 nM | 6.2 nM | 6 nM | Toxic | Toxic | 23 nM | Toxic
6 | Cc1cn([C@H]2C[C@H](N=[N+]=[N-])[C@@H](CO)O2)c(=O)[nH]c1=O [ZIDOVUDINE] | > 7490 nM | 10 nM | > 645 |  |  |  | > 28100 nM | > 714 | 7.9 nM | 12 nM | 4.9 nM | 4.9 nM | 12 nM |  |  | 7.5 nM | 

Reference: ChEMBL document CHEMBL4359892, “Discovery of novel indolylarylsulfones as potent HIV-1 NNRTIs via structure-guided scaffold morphing” (Eur J Med Chem, 2019)
